According to ChEMBL document CHEMBL1126157, “QSAR analyses of the substituted indanone and benzylpiperidine rings of a series of indanone-benzylpiperidine inhibitors of acetylcholinesterase” (J Med Chem, 1992):

Columns and labels:
Acetylcholinesterase [1] = molecular target: T1, Acetylcholinesterase (Homo sapiens, UniProt P22303)
Acetylcholinesterase [2] = molecular target: T1, Acetylcholinesterase; remark: listed apart in the source
Description: Inhibition of acetylcholinesterase.

Acetylcholinesterase [3] = molecular target: T1, Acetylcholinesterase; remark: listed apart in the source
Acetylcholinesterase [4] = molecular target: T1, Acetylcholinesterase; remark: listed apart in the source
Description: Inhibition of acetylcholinesterase.

T1 sequence (P22303 whole entry): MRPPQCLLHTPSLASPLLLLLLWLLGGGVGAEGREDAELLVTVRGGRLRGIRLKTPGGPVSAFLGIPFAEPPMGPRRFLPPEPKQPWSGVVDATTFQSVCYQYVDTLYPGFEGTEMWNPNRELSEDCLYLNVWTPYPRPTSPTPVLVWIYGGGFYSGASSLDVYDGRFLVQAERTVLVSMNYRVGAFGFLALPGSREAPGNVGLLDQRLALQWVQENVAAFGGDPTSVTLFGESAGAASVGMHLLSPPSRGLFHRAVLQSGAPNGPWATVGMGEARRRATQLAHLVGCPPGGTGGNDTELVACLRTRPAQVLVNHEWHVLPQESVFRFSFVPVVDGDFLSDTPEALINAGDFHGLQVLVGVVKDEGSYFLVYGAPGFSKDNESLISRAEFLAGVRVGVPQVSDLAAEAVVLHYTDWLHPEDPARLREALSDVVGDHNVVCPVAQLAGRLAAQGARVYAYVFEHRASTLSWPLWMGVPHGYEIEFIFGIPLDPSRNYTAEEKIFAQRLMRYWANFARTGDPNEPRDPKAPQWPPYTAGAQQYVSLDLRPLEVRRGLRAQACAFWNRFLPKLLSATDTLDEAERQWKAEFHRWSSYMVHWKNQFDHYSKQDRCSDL

| SMILES | IC50 (Acetylcholinesterase [1]) | IC50 (Acetylcholinesterase [2]) | IC50 (Acetylcholinesterase [3]) | IC50 (Acetylcholinesterase [4]) |
| --- | --- | --- | --- | --- |
| Cc1ccccc1 [TOLUENE] | 4900 nM | 5.25 nM | – | – |
| COc1cc2c(c(OC)c1OC)C(=O)C(C)C2 (stereo not given) | – | – | 380 nM | 13.2 nM |
| Cc1cccc(F)c1 | 4900 nM | 1 nM | – | – |
| Cc1ccccc1F | 4900 nM | 9.55 nM | – | – |
| Cc1ccccc1C [O-XYLENE] | 4900 nM | 10 nM | – | – |
| COc1ccc(OC)c2c1CC(C)C2=O (stereo not given) | – | – | 380 nM | 36.3 nM |
| COc1cc2c(cc1OC(C)C)CC(C)C2=O (stereo not given) | – | – | 380 nM | 8.91 nM |
| CCOc1cc2c(cc1OCC)C(=O)C(C)C2 (stereo not given) | – | – | 380 nM | 6.31 nM |
| Cc1ccc2c(c1)C(=O)C(C)C2 (stereo not given) | – | – | 380 nM | 69.2 nM |
| CC1Cc2ccc(F)cc2C1=O (stereo not given) | – | – | 380 nM | 200 nM |
| Cc1cccc(O)c1 [METACRESOL] | 4900 nM | 45.7 nM | – | – |
| COc1cc2c(cc1O)CC(C)C2=O (stereo not given) | – | – | 380 nM | 380 nM |
| Cc1ccc(F)cc1 | 4900 nM | 9.55 nM | – | – |
| COc1cccc2c1CC(C)C2=O (stereo not given) | – | – | 380 nM | 12 nM |
| Cc1cccc2c1CC(C)C2=O (stereo not given) | – | – | 380 nM | 7.08 nM |
| COc1cc2c(cc1OC)C(=O)C(C)C2 (stereo not given) | – | – | 380 nM | 5.25 nM |
| COc1ccc2c(c1)C(=O)C(C)C2 (stereo not given) | – | – | 380 nM | 81.3 nM |
| COc1ccc(C)cc1OC | 4900 nM | 3980 nM | – | – |
| Cc1cccc(C)c1 [M-XYLENE] | 4900 nM | 2 nM | – | – |
| CC1Cc2cc3c(cc2C1=O)OCO3 (stereo not given) | – | – | 380 nM | 22.9 nM |
| Cc1ccc(C)cc1 [P-XYLENE] | 4900 nM | 39.8 nM | – | – |
| COc1cc(C)cc(OC)c1OC | 4900 nM | 4900 nM | – | – |
| COc1cccc(C)c1 | 4900 nM | 219 nM | – | – |
| COc1ccc2c(c1OC)C(=O)C(C)C2 (stereo not given) | – | – | 380 nM | 87.1 nM |
| CC1Cc2ccccc2C1=O (stereo not given) | – | – | 380 nM | 148 nM |
| Cc1ccc([N+](=O)[O-])cc1 [4-NITROTOLUENE] | 4900 nM | 100 nM | – | – |
| COc1cc2c(cc1O)C(=O)C(C)C2 (stereo not given) | – | – | 380 nM | 1.32 nM |
| COc1ccc2c(c1OC)CC(C)C2=O (stereo not given) | – | – | 380 nM | 20 nM |
| Cc1ccc(O)cc1 [p-CRESOL] | 4900 nM | 1.82 nM | – | – |
| COc1cc2c(c(OC)c1)C(=O)C(C)C2 (stereo not given) | – | – | 380 nM | 25.1 nM |
